Laboratory results as given in patent US12064453B2, “Biochemical and biomechanical conditioning for enhancing personalized mesenchymal stem cell therapies” (BOARD OF REGENTS, THE UNIVERSITY OF TEXAS SYSTEM, priority 2017, dated 2024).

Experiments:
[1] = tested on: Smad2/3; assay: Smad transcription factor activity, multi-strain mechanical loading; type: cell-based, human; details: MSCs; 0.1 Hz, 7.5% strain, 24 hours, co-treatment
Experimental: Transcription factor activity assay.
To perform a high throughput assay of the dependence of magnitude of mechanical strain on the activation of Smad2/3, the heights of the individual pistons were adjusted to apply mechanical strains over a range of 0 to 17.5% strain, in increments of 2.5% strain (FIGS. 2B-D). […] The regulation of differentiation-related pathways in MSCs was examined by loading the cells for 24 hours under multi-strain conditions at 0.1 Hz and performing immunostaining. A maximal increase in nuclear to cytoplasmic Yap/Taz was found at 7.5% strain and maximal nuclear localization of Smad2/3 at 10-12.5% strain (FIG. 2F). In addition, there was a maximal increase in α-SMA expression in the range of strains from 7.5-12.5% strain (FIG. 2G). At 10-15% strain, there was a maximal increase in polymerized actin and paxillin (FIG. 2G). The mechanical loading was repeated at 7.5% strain with 0.1 Hz frequency using both sine and brachial waveforms and then performed western blotting. With brachial waveform loading, increases in PECAM-1 expression were found and as well as a reduction in α-SMA expression and an increase in p-Smad 2/3 (FIGS. 2H, I). Overall, these studies support maximal activation of Smad signaling in MSCs with 0.1 Hz of loading at 7.5% strain, with an increase in endothelial-like phenotype with brachial loading.

[2] = tested on: Human mesenchymal stem cells (hMSCs); assay: Long term conditioning of hMSCs with biochemical factors and mechanical load, immunostaining; type: cell-based; details: seven days; for paxillin levels: with and without load (0.1 Hz, 7.5% strain, 4 hours daily); for endothelial marker vWF: in combination with mechanical loading
Experimental: Human mesenchymal stem cells (hMSCs; Millipore) were cultured in low glucose DMEM medium supplemented with 15% fetal bovine serum, L-glutamine, and penicillin/streptomycin. Following trypsinization, cells were seeded on the membranes at 4,000 cells per cm^2 before mechanical loading. Immunocytochemical staining. Cells were fixed in 4% paraformaldehyde in PBS for 10 min followed by washing and permeabilization with 0.1% Triton X-100 PBS for 5 min. Next, samples were blocked with 1% BSA 5% FBS in PBS for 40 min. After washing, cells were incubated with primary antibodies (Table 1) overnight at 4° C. The next day, samples were washed in 1% BSA in PBS and was incubated with secondary antibodies and DAPI staining for 2 hours in a light protected environment. For actin staining, an alternative step was used in which samples were treated with Alexa 594 conjugated phalloidin for 30 min. Cells were washed thoroughly before they were imaged. For standard fluorescent microscopy, Zeiss Observerl was used. […] Long term conditioning of hMSCs using biochemical factors. For long term loading, cells were exposed to media containing small biomolecules (Table 3). They were loaded for 4 hours every day for 7 days under sine and brachial waveform at 0.1 Hz and 7.5% maximum strain and compared against those in static culture. Media containing the biomolecules were replaced on day 3 and day 5, with the exception of 5-Aza containing media. Due to the cytotoxic nature of 5-Aza, it was replaced with normal media on day 1. On day 6, media was replaced with 0.5% FBS containing media post loading. Following long term loading on day 7, the condition media was collected and further assays were performed on the cells. To examine the ability of long term application of mechanical loading in conditioning MSCs, the cells were treated with treatments known to cause differentiation into vascular/cardiovascular phenotypes including 5-azacitidine (5-aza), Dexamethasone with insulin (Dex+Ins), PDGF-BB, hydrocortisone (Hydrocort), EGF, VEGF-A, and TGF-β1.

[3] = tested on: Human mesenchymal stem cells (hMSCs); assay: Oil Red O or Alizarin Red staining for adipogenic and osteogenic differentiation; type: cell-based
Experimental: Long term conditioning of hMSCs using biochemical factors. For long term loading, cells were exposed to media containing small biomolecules (Table 3). They were loaded for 4 hours every day for 7 days under sine and brachial waveform at 0.1 Hz and 7.5% maximum strain and compared against those in static culture. Media containing the biomolecules were replaced on day 3 and day 5, with the exception of 5-Aza containing media. Due to the cytotoxic nature of 5-Aza, it was replaced with normal media on day 1. On day 6, media was replaced with 0.5% FBS containing media post loading. Following long term loading on day 7, the condition media was collected and further assays were performed on the cells. […] To test for adipogenic and osteogenic differentiation, the cells were also stained using Oil Red O or Alizarin Red dye.

[4] = tested on: FOXO; details: MSCs; VEGF at 2 Hz frequency of loading (5% maximal strain) or at 1 Hz; 10 ng/ml; 8 hours
Experimental: (§1) Transcription factor activity assay. The cells were transduced with luminescent reporter vectors for target transcription factors. Briefly, for each target transcription factor, freshly passaged hMSCs were treated with luciferase reporter expressing lentiviruses (Qiagen). For the drug screening assay, hMSCs were treated with biomolecules in the kinase inhibitor library (Millipore Calbiochem) 1 hour prior to loading. After mechanical loading, the cells were lysed and the relative luminescent signal was measured using the luciferase assay kit (Promega) with FlexStation-3 plate reader (Molecular Devices). For each plate, average from three individual readings was reported.
(§2) A major limitation of previous studies in mechanobiology is the limited ability to investigate a variety of conditions simultaneously. This gap in capability leads to an incomplete exploration of the range of mechanical conditions and greatly reduces the ability to examine synergy between applied mechanical forces and biochemical signals. Mesenchymal stem cells were transduced with lentiviruses expressing luciferase reporter constructs for transcription factors including FOXO, TCF/LEF, Smad2/3 and SRE and selected these to obtain a stable reporter cell line. […]

[5] = tested on: TCF/LEF; details: MSCs; loading at 0.1 Hz with VEGF treatment; 10 ng/ml; 8 hours
Experimental: as §1, §2

[6] = tested on: Human mesenchymal stem cells (hMSCs); details: long term conditioning
Text: Fluorescence Activated Cell Sorting (FACS). After long term loading, the cells were then detached from the loading plate using accutase (Sigma) and was labeled with fluorescent antibodies according the BD Bioscience FACS staining kit (BD 562725) for cardiovascular phenotypes such as endothelial, smooth muscle, and pericyte phenotypes. […] Fortessa of UT Austin Core Facility was used to measure population fluorescent signals.
To address these issues, a combinatorial set of mechanical loading and biochemical or pharmacological treatments were applied to MSCs and the phenotype assessed using multiple markers using FACS (FIG. 5A).

Compound	Smad transcription factor activity [1]	paxillin levels [2]	nuclear localization of Yap/Taz ([2]; with mechanical loading, in comparison to other treatment groups)	Osteogenesis (Alizarin Red) ([3]; static conditions)	Osteogenesis (Alizarin Red) ([3]; with mechanical loading)	endothelial marker vWF [2]	PECAM-1 ([2]; in combination with mechanical load)	FOXO transcription factor activity [4]	TCF/LEF transcription factor activity [5]	endothelial lineage defined by the FACS protocol [6]
TGF-β1	optimal synergistic activation	not increased	markedly reduced	observed	did not occur					
EGF [growth factor, Sigma-Aldrich E9644, 10 ng/mL]		increased paxillin levels				to a lesser extent				
Nc1ncn([C@@H]2O[C@H](CO)[C@@H](O)[C@H]2O)c(=O)n1 [5-aza, 5-Azacytidine]		increased paxillin levels					increased			
VEGF		increased paxillin levels				to a lesser extent		reduction in FOXO activity	synergistically activated	did not increase
